Measurements as given in patent EP4640206A1, “NISIN FOR INHIBITING BIOFILMS” (SkyLab AG, priority 2024, dated 2025).

Experiments:
[1] = tested on: Streptococcus mutans No. 22081; assay: Effect of nisin concentrations on growth and biomass accumulation of S.mutans, serial two-fold dilutions micromethod, 16-hour follow-up (optical density A565 nm); format: cell-based
Description: Example No. 1. Determination of the effect of different concentrations of nisin on growth and biomass accumulation of S.mutans No. 22081 in 16-hour follow-up.
Aqueous solution of nisin in different concentrations was used as the working solution.
To prepare the reaction mixture containing the tested component, a method of serial twofold dilutions in heart-brain broth (Series 201181, valid till 012025., CONDALAB, Spain), a micromethod (flat-bottom 96-well plate), for which serial dilutions of the investigated component were prepared in liquid nutrient medium. When setting the methods of serial dilutions, control of culture growth on medium without the active component was carried out, and the quality of medium and investigated preparations was controlled using reference strains of the species. The purity of the microorganism suspension used for inoculation was also controlled by sowing on non-selective media.
The results of the micromethod formulation to evaluate the effect of drugs on the growth and development of the culture of Streptococcus mutans No. 22081 were recorded spectrophotometrically in an automatic kinetic format (intermittent shaking, T-37°C, measurement of optical density A565 nm every hour in automatic mode).

S.mutans biofilms = assay: Follow-up observation of pH of washes of a laboratory model of S. mutans biofilms in 10% sucrose; format: cell-based, Streptococcus mutans; conditions: 10% sucrose; for Value of pH decrease within 30 min. of measurement (%): compared to the initial value
Procedure: Example No. 2. Follow-up observation of pH of washes of a laboratory model of S. mutans biofilms.
Inoculum of S.mutans control strain was prepared from an ampoule. The ampoule with the dried strain was opened sterilely over a drier or a tray. The upper end of the ampoule was heated on a burner flame, and paraffin was removed; then a piece of sterile absorbent cotton moistened in sterile water was carefully touched to the pulled end of the ampoule so that a small crack appeared, and the same wet cotton was passed around the tip of the ampoule. After the crack had formed, the end of the ampoule was removed with a light blow of tweezers. After opening the ampoule, 0.3-0.5 ml of heart-brain broth was sterilely poured in. After dissolution of the dry contents, the ampoule was transferred with a Pasteur pipette into tubes with 2 ml of heart-brain broth and grown at 37°C for 2 hours in a thermostat in 5% CO2 medium. To restore full viability, 1-2 passages on nutrient media appropriate for the microbes of the species were required. 2 Petri dishes with agar containing 5% horse blood were seeded with 0.1 ml of a 2-hour culture on heart-brain broth of the strain. Petri dishes were incubated at 37°C for 18 hours in an incubator containing 5% CO2. Gram stained smears were prepared from the grown colonies to assess the tinctorial, phenotypic properties and homogeneity of bacteria. Species membership was confirmed using MALDI-TOF reference bases.
Aqueous solutions of nisin in concentrations of 0.004 and 0.008% were taken as the working solutions for testing. […] Distilled water was used as a negative control. […] Urea was chosen due to its ability to alkalinize the environment in bacterial biofilms (Jadon et al., 2018). During the assay, a 10% sucrose solution was used, which is known to be readily metabolized by cariogenic bacteria to acid, thus contributing to the overall acidification of the medium.
The contents of the wells were extracted using an aspirator. All 6 wells of the first row were filled with 1 ml of deionized water and left for 5 min. The water was extracted with an aspirator; 1 ml of the test solution was added into the wells; in 1 min the component was removed, the wells were glazed for 1 min with deionized water, then it was removed. 250 µl of 10% sucrose was added to the wells and biofilms were scraped off the well walls with a disposable plastic loop. The resulting suspension was transferred by pipette into three Eppendorf tubes: contents of wells 1 and 2 into Eppendorf tube No. 1, contents of wells 3 and 4 into Eppendorf tube No. 2, contents of wells 5 and 6 into Eppendorf tube No. 3; next, the measurement of pH started immediately. Time points of the measurement are: 0, 1, 2, 3, 4, 5, 6, 7, 8, 9, 10, 15, 20, 30 min. After the test was finished, the electrode was washed and the described procedure was repeated for the next solution under study.

[2] = heart-brain broth, 37°C, 16-hour follow-up

With Nisin the “effect on growth and biomass accumulation” value ([1]; concentrations lower than 0.0039%) was “no significant effect”, the “concentrations that significantly inhibited growth and biomass accumulation, but had no bactericidal effect” value [1, 2] was 0.0039-0.0078% and the “final concentration with pronounced antibacterial effect” value [1, 2] was 0.0078-0.125%. For the same substance, the minimum-suppressive concentration [1, 2] was 0.0039%, the “antibacterial and inhibitory activity against S.mutans” value ([1]; nisin solution in concentration of 0.008% and below) was “not able to have antibacterial and inhibitory activity” and the “pH of mechanically disrupted S.mutans biofilms” value (S.mutans biofilms; Nisin 0.004%, 0 min) was 6.09±0.006. The “pH of mechanically disrupted S.mutans biofilms” value (S.mutans biofilms; Nisin 0.004%, 1 min) was 6.08±0.006, the “pH change (in brackets), S.mutans biofilms” value (“pH change (in brackets)” for short) (S.mutans biofilms; Nisin 0.004%, 1 min vs previous time point) was -0.01 and the “pH of mechanically disrupted S.mutans biofilms” value (S.mutans biofilms; Nisin 0.004%, 2 min) was 6.07±0.006. The “pH change (in brackets)” value (S.mutans biofilms; Nisin 0.004%, 2 min vs previous time point) was -0.01, the “pH of mechanically disrupted S.mutans biofilms” value (S.mutans biofilms; Nisin 0.004%, 3 min) was 6.05±0.006 and the “pH change (in brackets)” value (S.mutans biofilms; Nisin 0.004%, 3 min vs previous time point) was -0.02. The “pH of mechanically disrupted S.mutans biofilms” value (S.mutans biofilms; Nisin 0.004%, 4 min) was 6.05±0, the “pH change (in brackets)” value (S.mutans biofilms; Nisin 0.004%, 4 min vs previous time point) was 0 and the “pH of mechanically disrupted S.mutans biofilms” value (S.mutans biofilms; Nisin 0.004%, 5 min) was 6.04±0.006. For the same substance, the “pH change (in brackets)” value (S.mutans biofilms; Nisin 0.004%, 5 min vs previous time point) was -0.01, the “pH of mechanically disrupted S.mutans biofilms” value (S.mutans biofilms; Nisin 0.004%, 6 min) was 6.05±0.006 and the “pH change (in brackets)” value (S.mutans biofilms; Nisin 0.004%, 6 min vs previous time point) was “+0.01”. For the same substance, the “pH of mechanically disrupted S.mutans biofilms” value (S.mutans biofilms; Nisin 0.004%, 7 min) was 6.05±0.006, the “pH change (in brackets)” value (S.mutans biofilms; Nisin 0.004%, 7 min vs previous time point) was 0 and the “pH of mechanically disrupted S.mutans biofilms” value (S.mutans biofilms; Nisin 0.004%, 8 min) was 6.05±0. For the same substance, the “pH change (in brackets)” value (S.mutans biofilms; Nisin 0.004%, 8 min vs previous time point) was 0, the “pH of mechanically disrupted S.mutans biofilms” value (S.mutans biofilms; Nisin 0.004%, 9 min) was 6.05±0 and the “pH change (in brackets)” value (S.mutans biofilms; Nisin 0.004%, 9 min vs previous time point) was 0. The “pH of mechanically disrupted S.mutans biofilms” value (S.mutans biofilms; Nisin 0.004%, 10 min) was 6.06±0.006, the “pH change (in brackets)” value (S.mutans biofilms; Nisin 0.004%, 10 min vs previous time point) was “+0.01” and the “pH of mechanically disrupted S.mutans biofilms” value (S.mutans biofilms; Nisin 0.004%, 15 min) was 6.05±0.006. For the same substance, the “pH change (in brackets)” value (S.mutans biofilms; Nisin 0.004%, 15 min vs previous time point) was -0.01, the “pH of mechanically disrupted S.mutans biofilms” value (S.mutans biofilms; Nisin 0.004%, 20 min) was 6.04±0.006 and the “pH change (in brackets)” value (S.mutans biofilms; Nisin 0.004%, 20 min vs previous time point) was -0.01. For the same substance, the “pH of mechanically disrupted S.mutans biofilms” value (S.mutans biofilms; Nisin 0.004%, 30 min) was 6.0±0, the “pH change (in brackets)” value (S.mutans biofilms; Nisin 0.004%, 30 min vs previous time point) was -0.04 and the “Value of pH decrease within 30 min. of measurement (%)” value (S.mutans biofilms; Nisin 0.004%) was -1.47%. The “Value of pH decrease within 30 min. of measurement (%)” value (S.mutans biofilms; Nisin 0.008%) was -3.15%, the “pH of mechanically disrupted S.mutans biofilms” value (S.mutans biofilms; Nisin 0,008%, 0 min) was 6.33±0 and the “pH of mechanically disrupted S.mutans biofilms” value (S.mutans biofilms; Nisin 0,008%, 1 min) was 6.32±0.006. For the same substance, the “pH change (in brackets)” value (S.mutans biofilms; Nisin 0,008%, 1 min vs previous time point) was -0.01, the “pH of mechanically disrupted S.mutans biofilms” value (S.mutans biofilms; Nisin 0,008%, 2 min) was 6.31±0.006 and the “pH change (in brackets)” value (S.mutans biofilms; Nisin 0,008%, 2 min vs previous time point) was -0.01. For the same substance, the “pH of mechanically disrupted S.mutans biofilms” value (S.mutans biofilms; Nisin 0,008%, 3 min) was 6.28±0.01, the “pH change (in brackets)” value (S.mutans biofilms; Nisin 0,008%, 3 min vs previous time point) was -0.03 and the “pH of mechanically disrupted S.mutans biofilms” value (S.mutans biofilms; Nisin 0,008%, 4 min) was 6.24±0.006. For the same substance, the “pH change (in brackets)” value (S.mutans biofilms; Nisin 0,008%, 4 min vs previous time point) was -0.04, the “pH of mechanically disrupted S.mutans biofilms” value (S.mutans biofilms; Nisin 0,008%, 5 min) was 6.21±0.006 and the “pH change (in brackets)” value (S.mutans biofilms; Nisin 0,008%, 5 min vs previous time point) was -0.03. The “pH of mechanically disrupted S.mutans biofilms” value (S.mutans biofilms; Nisin 0,008%, 6 min) was 6.21±0, the “pH change (in brackets)” value (S.mutans biofilms; Nisin 0,008%, 6 min vs previous time point) was -0.03 and the “pH of mechanically disrupted S.mutans biofilms” value (S.mutans biofilms; Nisin 0,008%, 7 min) was 6.23±0. The “pH change (in brackets)” value (S.mutans biofilms; Nisin 0,008%, 7 min vs previous time point) was “+0.02”, the “pH of mechanically disrupted S.mutans biofilms” value (S.mutans biofilms; Nisin 0,008%, 8 min) was 6.23±0 and the “pH change (in brackets)” value (S.mutans biofilms; Nisin 0,008%, 8 min vs previous time point) was 0. For the same substance, the “pH of mechanically disrupted S.mutans biofilms” value (S.mutans biofilms; Nisin 0,008%, 9 min) was 6.21±0, the “pH change (in brackets)” value (S.mutans biofilms; Nisin 0,008%, 9 min vs previous time point) was -0.02 and the “pH of mechanically disrupted S.mutans biofilms” value (S.mutans biofilms; Nisin 0,008%, 10 min) was 6.2±0.006. For the same substance, the “pH change (in brackets)” value (S.mutans biofilms; Nisin 0,008%, 10 min vs previous time point) was -0.01, the “pH of mechanically disrupted S.mutans biofilms” value (S.mutans biofilms; Nisin 0,008%, 15 min) was 6.18±0 and the “pH change (in brackets)” value (S.mutans biofilms; Nisin 0,008%, 15 min vs previous time point) was -0.02. The “pH of mechanically disrupted S.mutans biofilms” value (S.mutans biofilms; Nisin 0,008%, 20 min) was 6.17±0.006, the “pH change (in brackets)” value (S.mutans biofilms; Nisin 0,008%, 20 min vs previous time point) was -0.01 and the “pH of mechanically disrupted S.mutans biofilms” value (S.mutans biofilms; Nisin 0,008%, 30 min) was 6.13±0.006. For the same substance, the “pH change (in brackets)” value (S.mutans biofilms; Nisin 0,008%, 30 min vs previous time point) was -0.04 and the “effect on the pH of cariogenic biofilm affected by sucrose” value (S.mutans biofilms; nisin 0.004-0.008%) was “stabilizing effect”.
